According to patent publication US11254986B2, “Gene signature for immune therapies in cancer” (ALMAC DIAGNOSTICS LIMITED, priority 2015, dated 2022):

Legend:
[1] = tested on: HCC1937 parental and HCC1937-BR cells; experiment: Cell viability assay (CellTitre-Glo), determination of cisplatin sensitivity; format: cell-based; details: HCC1937 BRCA1 mutant cell-line relative to BRCA1 corrected cell-line (HCC1937-BR); FIG. 8D
Protocol: For measurement of sensitivity to cisplatin, exponentially growing cells were seeded into 96-well plates. […] Cells were incubated in the presence of drug for 96 hours following which time the viability of the cells was assessed using the Promega CellTitre-Glo luminescent cell viability assay. The sensitivity of the cells was calculated as the percentage of vehicle (DMSO) control.

[2] = tested on: CXCL10 and CCL5 expression; experiment: qRT-PCR of chemokine expression after DNA damaging agents, paclitaxel or nocodazole; format: cell-based; details: HeLa, HCC1937 EV and MDA-MB-436 EV cells; IC-50 doses; compared to DMSO control; FIG. 14
Protocol: Reverse transcription was performed using the First Strand cDNA synthesis kit (Roche). 500 ng of RNA was reverse transcribed according to manufacturer's instructions. Exon-spanning qPCR primers were designed using Roche Universal Probe Library Assay Design Centre and were used at a concentration of 0.5 μM. The following primer sequences were used:
To preform absolute quantification from qPCR, we used a standard curve method. The efficiency of each primer set was derived from the standard curve using the following equation: E=10^(−1/slope)
The product of Reverse Transcription was diluted 1:10 in Nuclease Free Water (NFW). Each 10 μl PCR reaction, consisted of 0.5 μl of 10 μM Forward primer, 0.5 μl of 10 μM Reverse primer, 5 μl of 2× LightCycler® 480 SYBR Green I Master mix (Roche), 1.5 μl NFW and 2.5 μl diluted Reverse Transcription product. These 10 μl reactions were pipetted into wells of a LightCycler® 480 multiwell 96 plate (Roche), the plate was then sealed using clear adhesive film (Roche). The plate was placed into the LightCycler® 480 (Roche) and run with the following protocol. (95° C. for 10 mins, 45 cycles of; 95° C. for 15 secs, 55° C. for 30 secs and 72° C. for 30 secs, finishing with a melt curve for confirmation of primer specificity. All qPCR data was analysed using the LightCycler® 480 software provided by Roche. For analysis, the Cp value from a technical duplicate was calculated and the relative amount of a gene was calculated Cp value to an in-run standard curve. Each mean value was then normalised to the mean concentration of the housekeeping gene PUM1 within the corresponding sample, by dividing the concentration of the target gene by the concentration of the house keeping gene. Relative expression refers to the gene expression levels that have been normalised to the housekeeping gene and made relative to the associated control samples. From these normalized values, the fold changes for each gene were calculated and the average of three individual fold changes were derived from three independent experimental triplicates. The unpaired, two-tailed students T-test available on GraphPad Prism 5.0 software was used to detect statistical significance.
For analysis of effects of ATM, ATR and DNAPK on cytokine expression, cells were seeded in six well plates at ˜60% confluency. Following incubation overnight, small molecule inhibitors of ATM (Ku60019, Selleck Chem) at a dose of 1 μm, ATR (ETP46464, Selleck Chem) at a dose of 5 μm and DNAPK (Nu7441, Selleck Chem) at a dose of 5 μm were added. At 24 hours, RNA and protein samples were obtained for analysis. For analysis of the effects of DNA damaging agents and paclitaxel on cytokine expression, cells were seeded in six well plates at ˜60% confluency. […]

For N.N.[Cl][Pt][Cl] [cisplatin], the “sensitivity to cisplatin (cell viability)” value [1] was “more sensitive” and the “CXCL10 and CCL5 relative expression” value [2] was “upregulation of CXCL10 and CCL5 expression was stimulated in all cell lines”.

NC(=O)NO [hydroxyurea, Hydroxyurea] was tested, and the “CXCL10 and CCL5 relative expression” value [2] was “upregulation of CXCL10 and CCL5 expression was stimulated in all cell lines”.
